# Experimental data taken from patent publication US10215755B2, “Method of diagnosing and treating Epstein Barr virus-based myalgic encephalomyelitis chronic fatigue syndrome patients” (CFS, LLC, priority 2012, dated 2019).
# Experiments:
# [1] = test system: EBV subset ME/CFS patients; assay: Energy Index Point Score (EIPS) of six EBV subset ME/CFS patients treated with valacyclovir for ≥12 months; assay type: in vivo, human; conditions: for EIPS final: valacyclovir ≥12 months
# Experimental: As depicted in Table 1, the Energy Index (EI) point score (Copyright, Lerner A M and Deeter R G, 1999), is a simple and reliable metric that can be used to easily evaluate the functional capacity of the CFS patient at each patient-physician visit. The EI is measured on a scale of 1-10. Validation of the EI was done using two methods: 1.) 20 CFS patients and 22 healthy adults, matched for sex, age, place, and time; EI, CFS=3.6; EI, healthy adults=9.9, p=<0.0001; and 2.) 55 CFS patients evaluated at the same time by the EI and fatigue severity score, correlation 0.67, p=0.0066. Improvement to disappearance of CFS symptoms correlates with an increasing EI.
# The validated energy index point score generally can be calculated for each CFS patient every 3 months at physician visits. A CFS patient has an EI≤5. A CFS patient with an […] is bedridden; a CFS diagnosis is no longer present at an EI>5. The EI effect size is 0.25, a medium effect size is 0.5. A large effect size is >0.8.
# 6 ME/CFS patients were identified as Group A EBV subset (five patients), and one patient (group B) had co-infection with Borrelia burgdorferi. […] A ME/CFS treatment decision tree that developed from the systematic review of the 142 ME/CFS patients is provided as FIG. 1.
# Demographics. ME/CFS patients (Table 2) the six ME/CFS patients (5 women) were selected from 142 ME/CFS of the 2001-2007 systematic review. They were 37-59 years old. Serum samples were taken at intervals Mar. 5, 2002-Nov. 14, 2003. There were 7 to 10 sera from each patient. Five of the 6 ME/CFS patients were Group A (no co-infections), and one patient had co-infection with Borrelia burgdorferi (patient no. 2). Five of the 6 patients were HCMV IgG serum antibody negative. Initial EIPS values were 3.5-5.0, meaning that patients could be out of bed only 3 to 4 hours a day, and required daily naps in bed to complete each day. One ME/CFS patient was able to struggle to complete a sedentary working day (Table 2, patient no. 6). […] They struggled at baseline to maintain their sedentary working day, required a daytime nap, and could no longer do any exercise without marked syncope and worsening fatigue. One year later the final EIPS values were 7-8, for the 5 group A ME/CFS patients, meaning that patients could now live normal lives. The single group B ME/CFS patient's final EIPS value increased from a baseline of 3.5 to 5, but this […] still met international criteria diagnosis of ME/CFS. The EIPS is a validated (FSS-9 item scale with high degree of internal consistency measured by Cronbach's alpha) is a Functional Activity Appraisal: energy Index Score Healthcare worker Appraisal.
# [2] = test system: group A ME/CFS patients; assay: Follow-up of 106 group A ME/CFS patients 2001-2007 under subset directed antiviral treatment; assay type: in vivo, human; conditions: 79 of 106 group A patients, valacyclovir (EBV subset) or valganciclovir (HCMV, HHV6 subsets), 2001-2007, p<0.0001
# Excerpt: A ME/CFS diagnostic panel was created utilizing initial Fukuda/Carruthers criteria and a systematic review of 142 ME/CFS patients. Two groups of ME/CFS patients were found. Group A patients had elevated serum IgG antibody titers to the herpes viruses Epstein-Barr virus (EBV), cytomegalovirus (HCMV) and Human Herpes virus 6 (HHV6) in single or multiple virus infection, but no other co-infections. Group B patients had similar elevated herpes virus antibody titers, plus serologic evidence of co-infections, tick-borne (“Borrelia burgdorferi”, “Anaplasma phagocytophilia”, “Babesia microti”); “Mycoplasma pneumoniae”; or adult rheumatoid fever. One hundred and six group A ME/CFS patients were followed from 2001-2007, and treated with subset directed valacyclovir EBV subset or valganciclovir (HCMV, HHV6 subsets). The data included over 7000 patient visits and 35,000 data entries.
# [3] = target: EBV thymidine kinase (Epstein-Barr virus, UniProt P03177); conditions: after gastrointestinal absorption; cited from earlier work
# Sequence of EBV thymidine kinase (P03177 whole entry): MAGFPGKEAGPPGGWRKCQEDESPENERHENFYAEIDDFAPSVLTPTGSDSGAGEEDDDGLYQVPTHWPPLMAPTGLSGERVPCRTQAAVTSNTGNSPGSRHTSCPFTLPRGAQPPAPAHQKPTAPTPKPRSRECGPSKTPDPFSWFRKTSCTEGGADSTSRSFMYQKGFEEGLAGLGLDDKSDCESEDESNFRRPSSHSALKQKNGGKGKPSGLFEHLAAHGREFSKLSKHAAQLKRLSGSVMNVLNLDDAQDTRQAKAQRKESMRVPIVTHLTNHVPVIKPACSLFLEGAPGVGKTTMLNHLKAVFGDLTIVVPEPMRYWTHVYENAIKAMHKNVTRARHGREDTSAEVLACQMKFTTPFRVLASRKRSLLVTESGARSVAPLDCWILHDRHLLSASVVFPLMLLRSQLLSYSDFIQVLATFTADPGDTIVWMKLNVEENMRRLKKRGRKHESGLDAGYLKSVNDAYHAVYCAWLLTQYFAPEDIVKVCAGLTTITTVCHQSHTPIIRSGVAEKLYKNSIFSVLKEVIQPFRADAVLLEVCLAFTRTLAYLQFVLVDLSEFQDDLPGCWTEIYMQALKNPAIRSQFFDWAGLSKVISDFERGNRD
# [4] = test system: early herpes virus proteins; conditions: cited from earlier work
# [5] = target: HCMV DNA polymerases (Human cytomegalovirus, UniProt P08546); conditions: cited from earlier work
# Sequence of HCMV DNA polymerases (P08546 whole entry): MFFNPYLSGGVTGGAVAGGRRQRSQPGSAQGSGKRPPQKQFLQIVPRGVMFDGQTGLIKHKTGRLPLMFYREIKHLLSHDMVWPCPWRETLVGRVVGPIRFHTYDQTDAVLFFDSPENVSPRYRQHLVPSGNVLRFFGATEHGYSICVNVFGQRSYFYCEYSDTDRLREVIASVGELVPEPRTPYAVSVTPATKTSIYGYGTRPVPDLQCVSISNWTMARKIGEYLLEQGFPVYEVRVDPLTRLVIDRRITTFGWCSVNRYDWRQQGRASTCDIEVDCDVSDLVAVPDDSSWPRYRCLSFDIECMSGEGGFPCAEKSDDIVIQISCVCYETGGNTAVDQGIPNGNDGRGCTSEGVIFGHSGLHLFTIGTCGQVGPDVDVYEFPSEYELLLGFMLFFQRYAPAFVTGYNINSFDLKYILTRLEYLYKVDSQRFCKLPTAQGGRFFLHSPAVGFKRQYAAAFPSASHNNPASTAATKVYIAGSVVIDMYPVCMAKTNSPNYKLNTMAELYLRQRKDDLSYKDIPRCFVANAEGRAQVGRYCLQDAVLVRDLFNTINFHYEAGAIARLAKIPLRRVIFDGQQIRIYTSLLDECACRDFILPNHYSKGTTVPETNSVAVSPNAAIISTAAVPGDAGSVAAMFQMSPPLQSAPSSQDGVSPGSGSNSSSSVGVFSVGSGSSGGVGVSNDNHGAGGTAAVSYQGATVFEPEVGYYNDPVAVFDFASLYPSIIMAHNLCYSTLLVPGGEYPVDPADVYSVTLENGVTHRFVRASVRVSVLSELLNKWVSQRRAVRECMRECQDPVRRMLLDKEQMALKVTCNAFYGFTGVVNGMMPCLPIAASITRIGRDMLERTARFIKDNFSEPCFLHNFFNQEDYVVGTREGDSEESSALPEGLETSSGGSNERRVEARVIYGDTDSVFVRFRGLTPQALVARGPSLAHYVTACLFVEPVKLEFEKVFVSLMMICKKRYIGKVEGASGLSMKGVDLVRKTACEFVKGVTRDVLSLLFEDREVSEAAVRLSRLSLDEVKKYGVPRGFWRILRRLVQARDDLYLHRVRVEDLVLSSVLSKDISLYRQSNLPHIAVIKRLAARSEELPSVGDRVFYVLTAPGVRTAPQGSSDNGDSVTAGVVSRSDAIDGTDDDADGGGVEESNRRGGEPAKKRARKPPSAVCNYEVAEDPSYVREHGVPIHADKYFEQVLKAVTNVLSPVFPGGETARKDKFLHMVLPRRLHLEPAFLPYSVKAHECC
# [6] = target: HV6 DNA polymerases (Human herpesvirus 6A, UniProt P28857); conditions: cited from earlier work
# Sequence of HV6 DNA polymerases (P28857 whole entry): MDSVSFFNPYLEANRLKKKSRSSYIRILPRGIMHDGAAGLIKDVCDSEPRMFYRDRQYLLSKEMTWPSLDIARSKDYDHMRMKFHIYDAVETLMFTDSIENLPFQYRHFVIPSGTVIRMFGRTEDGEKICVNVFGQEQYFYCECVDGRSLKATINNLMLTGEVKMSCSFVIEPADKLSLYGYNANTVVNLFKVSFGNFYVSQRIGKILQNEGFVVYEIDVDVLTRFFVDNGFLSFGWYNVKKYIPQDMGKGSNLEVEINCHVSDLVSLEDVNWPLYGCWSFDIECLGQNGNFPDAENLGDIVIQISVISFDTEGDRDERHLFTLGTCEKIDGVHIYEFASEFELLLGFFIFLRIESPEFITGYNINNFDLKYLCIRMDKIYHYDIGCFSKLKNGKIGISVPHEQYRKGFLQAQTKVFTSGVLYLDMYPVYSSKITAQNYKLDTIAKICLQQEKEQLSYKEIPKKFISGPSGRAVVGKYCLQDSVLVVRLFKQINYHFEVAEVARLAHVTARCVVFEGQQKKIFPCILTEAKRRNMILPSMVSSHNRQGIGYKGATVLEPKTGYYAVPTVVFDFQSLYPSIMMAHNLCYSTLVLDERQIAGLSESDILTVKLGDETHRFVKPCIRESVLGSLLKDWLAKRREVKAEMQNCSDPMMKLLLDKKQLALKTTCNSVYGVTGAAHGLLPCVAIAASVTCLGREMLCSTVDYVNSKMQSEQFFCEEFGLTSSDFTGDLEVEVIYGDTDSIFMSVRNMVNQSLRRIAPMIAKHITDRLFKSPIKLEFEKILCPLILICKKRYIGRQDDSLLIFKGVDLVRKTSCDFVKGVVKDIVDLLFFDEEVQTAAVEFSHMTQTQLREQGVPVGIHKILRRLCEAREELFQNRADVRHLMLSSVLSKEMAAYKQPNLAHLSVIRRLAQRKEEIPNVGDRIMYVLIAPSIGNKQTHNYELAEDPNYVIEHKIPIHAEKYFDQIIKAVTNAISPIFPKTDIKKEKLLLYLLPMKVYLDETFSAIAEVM
SMILES,"EIPS final ([1]; patient 1, Group A, no co-infection, EIPS 5 baseline)","EIPS final ([1]; patient 2, Group B, co-infection Lyme disease, EIPS 3.5 baseline)","EIPS final ([1]; patient 3, Group A, no co-infection, EIPS 5 baseline)","EIPS final ([1]; patient 4, Group A, no co-infection, EIPS 4 baseline)","EIPS final ([1]; patient 6, Group A, no co-infections, EIPS 6 baseline)","final EIPS value ([1]; single group B ME/CFS patient, baseline 3.5, still met criteria of ME/CFS)","final EIPS values ([1]; the 5 group A ME/CFS patients, one year later, initial EIPS 3.5-5.0 (one patient 6))",group A patients recovered to resume normal life [2],greater affinity for EBV thymidine kinase than for the host cellular enzyme [3],inhibition of early herpes virus proteins [4],inhibition of HCMV DNA polymerases [5],inhibition of HV6 DNA polymerases [6]
CC(C)[C@H](N)C(=O)OCCOCn1cnc2c(=O)[nH]c(N)nc21 [valacyclovir],EIPS 8,EIPS 5,EIPS 8,EIPS 7,EIPS 7,5,7-8,74.5%,200 ×,do not inhibit,,
CC(C)[C@H](N)C(=O)OCC(CO)OCn1cnc2c(=O)nc(N)[nH]c21 (some centres unmarked) [valganciclovir],,,,,,,,74.5%,,do not inhibit,inhibits,inhibits
